pIC50: −log10 of the molar value.
Test system: MM.1S cells
Test: MM.1S cell growth inhibition assay (CellTiter Glo, 96 h)
Assay type: cell-based
Conditions: Homo sapiens, MM1.S, MM.1S multiple myeloma cells
Experimental: The cell suspension was pipetted into a 15 mL centrifuge tube, and centrifuged at 800 rpm for 3 minutes. The supernatant was discarded. 2 mL of culture medium was added to the centrifuge tube, and the cells were resuspended evenly by gentle pipetting. The cell density was measure by a hemacytometer. Then the cell suspension was diluted to 50,000 cells/mL. The diluted cell suspension was added to a 96-well cell culture plate (Corning, 3599) in 100 μl/well (in column 1, there was 0.5% DMSO-containing medium in each well, and MM.1S cells were seeded in the remaining 88 wells). The plate was placed in a CO2 incubator overnight.
The compound to be tested was prepared into 10 mM solution in DMSO, and then the compound was prepared into a 2 mM solution in DMSO, which was added to the compound plate, and then it was diluted with DMSO in a 4-fold gradient dilution to be 7 points. 0.5 μL of the compound in the plate of the compound to be tested was pipetted into the cell culture plate (the compound was added to rows A to G, and 0.5 μL of DMSO was added to row H as a control). The final concentrations of the compound were 10000 nM, 2500 nM, 625 nM, 156.25 nM, 39.06 nM, 9.77 nM, 2.44 nM. The plate was returned to the CO2 incubator and incubated for 96 h. Then cell survival was detected by using CellTiter Glo reagent (Promega, Cat. No. G7573, Lot. No. 0000310975). The cell culture plate was taken out and equilibrated to room temperature. 100 μL of CellTiter Glo reagent was added to each well. The plate was shaken for 10 min in the dark, and incubated for 10 min. Then the culture plate was put into a multi-functional microplate reader EnSpire (PerkinElmer) for reading, and detected at 400-700 nm. The reading data were recorded. […] XLFit was used to plot the dose-response inhibition curve (four-parameter model [fit=(A+((B−A)/(1+((C/x)^D))))] and calculate the IC50 values.

With `CCS(=O)(=O)Nc1ccc(Oc2ccc(F)cc2F)c(-c2cc(C)c3c(=O)[nH]ccn23)c1` [ZB-BD-78] as the molecule, how does the pIC50 read?
The pIC50 was 7.28.

With `Cc1cc(-c2cc(NS(C)(=O)=O)ccc2OC2CCCCC2)n2cc[nH]c(=O)c12` [ZB-BD-92] as the molecule, how does the pIC50 read?
The pIC50 was 7.41.

How did the pIC50 turn out when `Cc1cc(-c2cc(CS(C)(=O)=O)ccc2Oc2ccc(F)cc2F)n2cc[nH]c(=O)c12` [ZB-BD-112] was run?
Its pIC50 is 7.19.

`CCS(=O)(=O)Cc1ccc(Oc2ccc(F)cc2F)c(-c2cc(C)c3c(=O)[nH]ccn23)c1` [ZB-BD-116] was tested. Which pIC50 did it give?
The pIC50 was 7.15.

`Cc1cc(-c2cc(CS(C)(=O)=O)cnc2Oc2ccc(F)cc2F)n2cc[nH]c(=O)c12` [ZB-BD-147] was tested. Which pIC50 did it give?
Its pIC50 is 7.13.

`Cc1cc(-c2cc(NS(C)(=O)=O)cnc2OC2CCCCC2)n2cc[nH]c(=O)c12` [ZB-BD-179] was tested. Which pIC50 did it give?
The pIC50 was 7.27.

With `Cc1cc(-c2cc(CS(C)(=O)=O)ccc2OC2CCCCC2)n2cc[nH]c(=O)c12` [ZB-BD-187] as the molecule, how does the pIC50 read?
Its pIC50 is 7.64.

How did the pIC50 turn out when `Cc1cc(-c2cc(CS(C)(=O)=O)cnc2OC2CCCCC2)n2cc[nH]c(=O)c12` [ZB-BD-202] was run?
Its pIC50 is 7.59.

How did the pIC50 turn out when `CCS(=O)(=O)Cc1cnc(Oc2ccc(F)cc2F)c(-c2cc(C)c3c(=O)[nH]ccn23)c1` [ZB-BD-216] was run?
Its pIC50 is 7.85.

Same assay, conditions: MM.1S multiple myeloma cells

With `Cc1sc2c(c1C)C(c1ccc(Cl)cc1)=N[C@@H](CC(=O)OC(C)(C)C)c1nnc(C)n1-2` [JQ1, reference compound] as the molecule, how does the pIC50 read?
The pIC50 was 6.74.

Molecular target: BRD4_BD1 (49-170) protein (Homo sapiens (Human), UniProt O60885)
Test: AlphaScreen assay: inhibition of binding of BRD4 bromodomain BD1 to acetylated histone H4 polypeptide
Conditions: BRD4 BD1 vs acetylated H4 polypeptide, read-out: ALPHA IC50
Source text: AlphaScreen kit (Perkin Elmer) was used to detect effect of the compounds on binding of BRD4 bromodomain to acetylated histone H4 polypeptide. […] Each of fusion proteins containing (His)6tag can be recognized and bound by Ni^2+. […] The donor microbeads were coated with streptavidin and can bind to biotinylated acetylated H4 polypeptide. The acceptor microbeads were coated with Ni^2+ ions and can bind to the BD1 protein with (His)6tag. When the BD1 protein recognized the acetylated H4 polypeptide, the donor microbeads and the acceptor microbeads can be brought closer to a certain distance. Within this range, the donor microbeads can produce singlet oxygen after being irradiated with a 680 nm excitation light, and transfer the singlet oxygen to the acceptor microbeads. After a series of cascade chemical reactions, the acceptor microbeads will generate an emission wave of 520-620 nm, which in turn can be detected a signal. In this experiment, the test system was 20 μL, and the compound needs to be diluted in buffer 1 (20 mM HEPES pH 7.4, 150 mM NaCl, 1 mM dithiothreitol). First, a solution of 20 mM compound was consecutively diluted twice, each in 10 times, totally in 100 times to a concentration of 200 μM. […] The recombinant BD1 protein solution and the acetylated histone H4 polypeptide were diluted in the buffer 2 (20 mM HEPES pH 7.4, 150 mM NaCl, 0.01% Triton X-100, 0.1% bovine serum protein (w/v, Sigma), 1 mM dithiothreitol) to 100 nM and 100 nM respectively, to obtain a 8×BD1 protein working solution and a 4× acetylated histone H4 polypeptide working solution. The donor microbeads and the acceptor microbeads are diluted together in the buffer 2, both in the ratio of 1:100, to obtain a 2× microbead mixed working solution. The plate was added with 2.5 μL of BD1 protein working solution and incubated with the compound for 20 min at room temperature, and then added with 5 μL of acetylated histone H4 polypeptide working solution and incubated at room temperature for 5 min, and finally added with 10 μL of microbead mixed working solution and incubated at room temperature for 60 min. […] IC50 values of the compounds at different concentrations for inhibiting the binding of BD1 protein to acetylated H4 polypeptide were calculated by fitting using GraphPad Prism 5.0 software.

`Cc1cc(-c2cc(NS(C)(=O)=O)ccc2Oc2cccnc2)n2cc[nH]c(=O)c12` [ZB-BD-94] was tested. Which pIC50 did it give?
The pIC50 was 7.85.

With `CCS(=O)(=O)Cc1ccc(Oc2ccc(F)cc2F)c(-c2cc(C)c3c(=O)[nH]ccn23)c1` [ZB-BD-116] as the molecule, how does the pIC50 read?
The pIC50 was 8.06.

With `Cc1cc(-c2cc(NS(C)(=O)=O)ccc2Oc2cccnc2)n2cn[nH]c(=O)c12` [ZB-BD-120] as the molecule, how does the pIC50 read?
The pIC50 was 7.44.

`Cc1cc(-c2cc(S(C)(=O)=O)ccc2Nc2ccccc2)n2cc[nH]c(=O)c12` [ZB-BD-130] was tested. Which pIC50 did it give?
The pIC50 was 6.49.

How did the pIC50 turn out when `CCS(=O)(=O)Cc1cnc(Oc2ccc(F)cc2F)c(-c2cc(C)c3c(=O)[nH]ncn23)c1` [ZB-BD-241] was run?
The pIC50 was 7.84.

Test system: MV4-11 cells
Test: Cell growth inhibition assay, MV4-11 (CellTiter-Glo, 72 h)
Assay type: cell-based
Conditions: Homo sapiens, MV4-11 acute mononuclear leukemia cells
Experimental: After seeding the cells in the plate, the cells were placed in a CO2 incubator (37° C., 5% CO2) and incubated for 1 h. […] After adding the compound, the cells were placed in a CO2 incubator (37° C., 5% CO2) for 72 h. CellTiter-Glo reagent (Promega, G7572) was used to determine cell survival. […] The detection result was analyzed and fitted by GraphPad Prism 5.0 software to give IC50 values.

`Cc1cc(-c2cc(NS(C)(=O)=O)ccc2Oc2ccccc2)n2cc[nH]c(=O)c12` [ZB-BD-70] was tested. Which pIC50 did it give?
The pIC50 was 7.48.

`Cc1cc(-c2cc(NS(C)(=O)=O)ccc2Oc2ccccc2)n2c1C(=O)NCC2` [ZB-BD-74] was tested. Which pIC50 did it give?
The pIC50 was 7.51.

`CCS(=O)(=O)Nc1ccc(Oc2ccccc2)c(-c2cc(C)c3c(=O)[nH]ccn23)c1` [ZB-BD-77] was tested. Which pIC50 did it give?
Its pIC50 is 7.87.

`CCS(=O)(=O)Nc1ccc(Oc2ccc(F)cc2F)c(-c2cc(C)c3c(=O)[nH]ccn23)c1` [ZB-BD-78] was tested. Which pIC50 did it give?
The pIC50 was 7.69.

`Cc1cc(-c2cc(NS(C)(=O)=O)ccc2Oc2ccc(F)cc2F)n2cc[nH]c(=O)c12` [ZB-BD-80] was tested. Which pIC50 did it give?
Its pIC50 is 7.53.

With `Cc1cc(-c2cc(NS(C)(=O)=O)ccc2OCC2CC2)n2cc[nH]c(=O)c12` [ZB-BD-83] as the molecule, how does the pIC50 read?
The pIC50 was 6.88.

`Cc1cc(-c2cc(CS(C)(=O)=O)ccc2Nc2ccccc2)n2cc[nH]c(=O)c12` [ZB-BD-87] was tested. Which pIC50 did it give?
The pIC50 was 7.10.

How did the pIC50 turn out when `Cc1cc(-c2cc(CS(C)(=O)=O)ccc2Nc2ccc(F)cc2)n2cc[nH]c(=O)c12` [ZB-BD-90] was run?
The pIC50 was 7.12.

How did the pIC50 turn out when `Cc1cc(-c2cc(NS(C)(=O)=O)ccc2Oc2cccnc2)n2cc[nH]c(=O)c12` [ZB-BD-94] was run?
Its pIC50 is 7.04.

With `Cc1cc(-c2cc(NS(C)(=O)=O)ccc2OC2CCOCC2)n2cc[nH]c(=O)c12` [ZB-BD-96] as the molecule, how does the pIC50 read?
Its pIC50 is over 7.00.

With `Cc1cc(-c2cc(NS(C)(=O)=O)ccc2Oc2ccccc2)n2cn[nH]c(=O)c12` [ZB-BD-102] as the molecule, how does the pIC50 read?
The pIC50 was over 7.00.

`Cc1cc(-c2cc(NS(C)(=O)=O)ccc2Oc2ccc(F)cc2F)n2cn[nH]c(=O)c12` [ZB-BD-103] was tested. Which pIC50 did it give?
Its pIC50 is over 7.00.

`Cc1cc(-c2cc(NS(C)(=O)=O)ccc2Oc2cccnc2)n2cn[nH]c(=O)c12` [ZB-BD-120] was tested. Which pIC50 did it give?
Its pIC50 is 6.95.

How did the pIC50 turn out when `Cc1ccccc1Oc1ccc(NS(C)(=O)=O)cc1-c1cc(C)c2c(=O)[nH]ccn12` [ZB-BD-232] was run?
The pIC50 was 7.60.

`Cc1cccc(C)c1Oc1ccc(NS(C)(=O)=O)cc1-c1cc(C)c2c(=O)[nH]ccn12` [ZB-BD-236] was tested. Which pIC50 did it give?
Its pIC50 is 7.31.

With `CCS(=O)(=O)Cc1ccc(Oc2c(C)cccc2C)c(-c2cc(C)c3c(=O)[nH]ccn23)c1` [ZB-BD-237] as the molecule, how does the pIC50 read?
Its pIC50 is 7.67.

With `CCS(=O)(=O)c1ccc(Oc2c(C)cccc2C)c(-c2cc(C)c3c(=O)[nH]ccn23)c1` [ZB-BD-239] as the molecule, how does the pIC50 read?
The pIC50 was 7.04.

How did the pIC50 turn out when `CCS(=O)(=O)c1ccc(Oc2ccccc2C)c(-c2cc(C)c3c(=O)[nH]ccn23)c1` [ZB-BD-240] was run?
Its pIC50 is 8.28.

`CCS(=O)(=O)Cc1cnc(Oc2ccc(F)cc2F)c(-c2cc(C)c3c(=O)[nH]ncn23)c1` [ZB-BD-241] was tested. Which pIC50 did it give?
Its pIC50 is 8.10.

Source: patent US11427593B2, “Bromodomain inhibitor compound and use thereof” (SHANGHAI INSTITUTE OF MATERIA MEDICA, CHINESE ACADEMY OF …, priority 2018, dated 2022)
